Reference: ChEMBL document CHEMBL6087462, “Cuminaldehyde Potentiates Antiproteolytic Peptide Efficacy via Parallel Pathways of Enhanced Inner Membrane-Damaging Activity and Inhibition of Bacterial Energy Metabolism” (J Med Chem, 2025)
Calls of active or inactive are those of the source. The rule behind the calls is not given here.

Tests used:
[1] = test system: Escherichia coli; assay: Antimicrobial activity against Escherichia coli ATCC 25922 assessed as reduction in microbial growth in presence of Na+; format: functional, organism-based
[2] = test system: Escherichia coli; assay: Antimicrobial activity against Escherichia coli ATCC 25922 assessed as reduction in microbial growth in presence of Ca+; format: functional, organism-based
[3] = test system: Escherichia coli; assay: Bactericidal activity against Escherichia coli K88 at 0.5 times MIC incubated for 24 hrs by time kill assay; format: functional, organism-based
[4] = test system: Pseudomonas aeruginosa; assay: Bactericidal activity against Pseudomonas aeruginosa 27853 at 0.5 times MIC incubated for 24 hrs by time kill assay; format: functional, organism-based
[5] = test system: Salmonella typhimurium; assay: Bactericidal activity against Salmonella typhimurium ATCC 14028 at 0.5 times MIC incubated for 24 hrs by time kill assay; format: functional, organism-based; details: Salmonella enterica subsp. enterica serovar Typhimurium
[6] = test system: Klebsiella pneumoniae; assay: Bactericidal activity against Klebsiella pneumoniae at 0.5 times MIC incubated for 24 hrs by time kill assay; format: functional, organism-based
[7] = test system: Acinetobacter baumannii; assay: Bactericidal activity against Acinetobacter baumannii at 0.5 times MIC incubated for 24 hrs by time kill assay; format: functional, organism-based
[8] = test system: Staphylococcus aureus; assay: Bactericidal activity against Staphylococcus aureus ATCC 25923 at 0.5 times MIC incubated for 24 hrs by time kill assay; format: functional, organism-based
[9] = test system: Staphylococcus epidermidis; assay: Bactericidal activity against Staphylococcus epidermidis ATCC 12228 at 0.5 times MIC incubated for 24 hrs by time kill assay; format: functional, organism-based
[10] = test system: Enterococcus faecalis; assay: Bactericidal activity against Enterococcus faecalis ATCC […] at 0.5 times MIC incubated for 24 hrs by time kill assay; format: functional, organism-based
[11] = test system: Streptococcus agalactiae; assay: Bactericidal activity against Streptococcus agalactiae CICC 10465 at 0.5 times MIC incubated for 24 hrs by time kill assay; format: functional, organism-based
[12] = test system: Escherichia coli; assay: Synergistic bactericidal activity against Escherichia coli K88 at 0.5 times MIC incubated for 24 hrs in presence of cuminaldehyde by time kill assay; format: functional, organism-based
[13] = test system: Pseudomonas aeruginosa; assay: Synergistic bactericidal activity against Pseudomonas aeruginosa 27853 at 0.5 times MIC incubated for 24 hrs in presence of cuminaldehyde by time kill assay; format: functional, organism-based
[14] = test system: Salmonella typhimurium; assay: Synergistic bactericidal activity against Salmonella typhimurium ATCC 14028 at 0.5 times MIC incubated for 24 hrs in presence of cuminaldehyde by time kill assay; format: functional, organism-based; details: Salmonella enterica subsp. enterica serovar Typhimurium
[15] = test system: Klebsiella pneumoniae; assay: Synergistic bactericidal activity against Klebsiella pneumoniae at 0.5 times MIC incubated for 24 hrs in presence of cuminaldehyde by time kill assay; format: functional, organism-based
[16] = test system: Acinetobacter baumannii; assay: Synergistic bactericidal activity against Acinetobacter baumannii at 0.5 times MIC incubated for 24 hrs in presence of cuminaldehyde by time kill assay; format: functional, organism-based
[17] = test system: Staphylococcus aureus; assay: Synergistic bactericidal activity Staphylococcus aureus ATCC 25923 at 0.5 times MIC incubated for 24 hrs in presence of cuminaldehyde by time kill assay; format: functional, organism-based
[18] = test system: Staphylococcus epidermidis; assay: Synergistic bactericidal activity Staphylococcus epidermidis ATCC 12228 at 0.5 times MIC incubated for 24 hrs in presence of cuminaldehyde by time kill assay; format: functional, organism-based
[19] = test system: Enterococcus faecalis; assay: Synergistic bactericidal activity Enterococcus faecalis ATCC 29212 at 0.5 times MIC incubated for 24 hrs in presence of cuminaldehyde by time kill assay; format: functional, organism-based
[20] = test system: Streptococcus agalactiae; assay: Synergistic bactericidal activity Streptococcus agalactiae CICC 10465 at 0.5 times MIC incubated for 24 hrs in presence of cuminaldehyde by time kill assay; format: functional, organism-based
[21] = test system: Escherichia coli; assay: Antimicrobial activity against Escherichia coli ATCC 25922 assessed as reduction in microbial growth in presence of Mg+; format: functional, organism-based
[22] = test system: Escherichia coli; assay: Antimicrobial activity against Escherichia coli ATCC 25922 assessed as reduction in microbial growth in presence of SGF; format: functional, organism-based
[23] = test system: Escherichia coli; assay: Antimicrobial activity against Escherichia coli ATCC 25922 assessed as reduction in microbial growth in presence of SIF; format: functional, organism-based
[24] = test system: Escherichia coli; assay: Antimicrobial activity against Escherichia coli ATCC 25922 assessed as reduction in microbial growth in presence of LPS; format: functional, organism-based
[25] = test system: Cell membrane; assay: Induction of outer membrane permeabilization in Escherichia coli ATCC 25922 by NPN-dye based assay; format: subcellular
[26] = test system: Cell membrane; assay: Induction of outer membrane permeabilization in Escherichia coli ATCC 25922 in presence of cuminaldehyde by NPN-dye based assay; format: subcellular
[27] = test system: Cell membrane; assay: Induction of cytoplasmic membrane depolarization in Escherichia coli ATCC 25922 by DiSC3(5) dye-based fluorescence assay; format: subcellular
[28] = test system: Cell membrane; assay: Induction of cytoplasmic membrane depolarization in Escherichia coli ATCC 25922 assessed as increase in fluorescence intensity in presence of cuminaldehyde by DiSC3(5) dye-based fluorescence assay
[29] = test system: Escherichia coli; assay: Induction of ROS accumulation in Escherichia coli ATCC 25922 at 0.5 to 1 time MIC; format: functional, organism-based
[30] = test system: Escherichia coli; assay: Induction of ROS accumulation in Escherichia coli ATCC 25922 at 0.5 to 1 time MIC in presence of cuminaldehyde; format: functional, organism-based
[31] = test system: Escherichia coli; assay: Upregulation of intracellular ATP level in Escherichia coli ATCC 25922 at 0.5 to 1 times MIC; format: functional, organism-based
[32] = test system: Escherichia coli; assay: Upregulation of intracellular ATP level in Escherichia coli ATCC 25922 at 0.5 to 1 times MIC in presence of cuminaldehyde; format: functional, organism-based
[33] = test system: Escherichia coli; assay: Antibacterial activity against Escherichia coli infected in K88-induced enteritis mouse model assessed as reduction in diarrhea score at 50 mg/kg, ip administered every 12 hrs for 2 days; format: functional, organism-based; details: time 2.0 day
[34] = test system: Escherichia coli; assay: Antibacterial activity against Escherichia coli infected in K88-induced enteritis mouse model assessed as reduction in number of colonies in ileum at 50 mg/kg, ip administered every 12 hrs for 2 days; format: functional, organism-based; details: time 2.0 day
[35] = test system: Escherichia coli; assay: Antibacterial activity against Escherichia coli infected in K88-induced enteritis mouse model assessed as reduction in number of colonies in colon at 50 mg/kg, ip administered every 12 hrs for 2 days; format: functional, organism-based; details: time 2.0 day
[36] = test system: Escherichia coli; assay: Antibacterial activity against Escherichia coli infected in K88-induced enteritis mouse model assessed as reduction in number of colonies in feces at 50 mg/kg, ip administered every 12 hrs for 2 days; format: functional, organism-based; details: time 2.0 day
[37] = species: Mus musculus; assay: Anti-inflammatory activity in ETEC-induced enteritis mouse model assessed as decrease in IL-6 level in colon by ELISA analysis; format: functional, organism-based
[38] = species: Mus musculus; assay: Anti-inflammatory activity in ETEC-induced enteritis mouse model assessed as decrease in TNF-alpha level in colon by ELISA analysis; format: functional, organism-based
[39] = species: Mus musculus; assay: Anti-inflammatory activity in ETEC-induced enteritis mouse model assessed as decrease in IL-1beta level in colon by ELISA analysis; format: functional, organism-based
[40] = species: Mus musculus; assay: Anti-inflammatory activity in ETEC-induced enteritis mouse model assessed as structural changes in intestine by H and E staining based analysis; format: functional, organism-based
[41] = test system: RAW264.7; assay: Cytotoxicity against mouse RAW264.7 cells assessed as cell death incubated for 4 hrs by MTT assay; format: toxicity, cell-based; details: raw264.7, 4 h
[42] = test system: HEK-293T; assay: Cytotoxicity against human HEK293T cells assessed as cell death incubated for 4 hrs by MTT assay; format: toxicity, cell-based
[43] = Cytotoxicity against porcine IPEC-J2 cells assessed as cell death incubated for 4 hrs by MTT assay; format: toxicity, cell-based, Sus scrofa; details: pig, ipec-j2, 4 h
[44] = Acute toxicity in C57BL/6 mouse assessed as lethal dose measured for 5 days; details: in vivo, time 5 day
[45] = Acute toxicity in C57BL/6 mouse assessed as animal survival at 80 mg/kg, po measured for 5 days; format: organism-based; details: in vivo, 120 h, time 5 day
[46] = Acute toxicity in C57BL/6 mouse assessed as animal survival at 40 mg/kg, po measured for 5 days; format: organism-based; details: in vivo, 120 h, time 5 day
[47] = Acute toxicity in C57BL/6 mouse assessed as ruffled fur at 80 mg/kg, po measured for 5 days; format: organism-based; details: in vivo, 120 h, time 5 day
[48] = Subacute toxicity in C57BL/6 mouse assessed as reduction in body weight loss at 125 mg/kg, po administered for 3 days; format: organism-based; details: in vivo, 72 h, time 3 day
[49] = Subacute toxicity in C57BL/6 mouse assessed as change in liver weight at 125 mg/kg, po administered for 3 days; format: organism-based; details: in vivo, 72 h, time 3 day
[50] = Subacute toxicity in C57BL/6 mouse assessed as change in kidney weight at 125 mg/kg, po administered for 3 days; format: organism-based; details: in vivo, 72 h, time 3 day
[51] = Subacute toxicity in C57BL/6 mouse assessed as change in spleen weight at 125 mg/kg, po administered for 3 days; format: organism-based; details: in vivo, 72 h, time 3 day
[52] = Subacute toxicity in C57BL/6 mouse assessed as change in BUN level at 125 mg/kg, po administered for 3 days; format: organism-based; details: in vivo, 72 h, time 3 day
[53] = Subacute toxicity in C57BL/6 mouse assessed as change in CREA level at 125 mg/kg, po administered for 3 days; format: organism-based; details: in vivo, 72 h, time 3 day
[54] = Subacute toxicity in C57BL/6 mouse assessed as change in ALT level at 125 mg/kg, po administered for 3 days; format: organism-based; details: in vivo, 72 h, time 3 day

## CC[C@H](C)[C@H](NC(=O)[C@@H](NC(=O)[C@@H](CCCNC(=N)N)NC(=O)[C@H](C)NC(=O)[C@H](C)NC(=O)C(N)Cc1cccc2ccccc12)[C@@H](C)CC)C(=O)N[C@@H](CC(C)C)C(=O)N[C@H](CCCNC(=N)N)C(=O)N[C@@H](Cc1c[nH]c2ccccc12)C(=O)N[C@H](CCCNC(=N)N)C(=O)N[C@@H](Cc1ccccc1)C(=O)N[C@@H](CCCNC(=N)N)C(=O)O (some centres undefined)
[1]
  Activity: Active
[2]
  Activity: Active
[3]
  Activity: Active
[4]
  Activity: Active
[5]
  Activity: Active
[6]
  Activity: Active
[7]
  Activity: Active
[8]
  Activity: Active
[9]
  Activity: Active
[10]
  Activity: Active
[11]
  Activity: Active
[12]
  Activity: Active
[13]
  Activity: Active
[14]
  Activity: Active
[15]
  Activity: Active
[16]
  Activity: Active
[17]
  Activity: Active
[18]
  Activity: Active
[19]
  Activity: Active
[20]
  Activity: Active
[21]
  Activity: Active
[22]
  Activity: Active
[23]
  Activity: Active
[24]
  Activity: Active
[25]
  Activity: inactive
[26]
  Activity: Active
[27]
  Activity: Dose-dependent-effect
[28]
  Activity: Active
[29]
  Activity: Active
[30]
  Activity: Active
[31]
  Activity: Active
[32]
  Activity: Active
[33]
  Activity: Active
[34]
  Activity: Active
[35]
  Activity: Active
[36]
  Activity: Active
[37]
  Activity: Active
[38]
  Activity: Active
[39]
  Activity: Active
[40]
  Activity: Active

## CC[C@H](C)[C@H](NC(=O)[C@@H](NC(=O)[C@@H](CCCNC(=N)N)NC(=O)[C@H](C)NC(=O)[C@H](C)NC(=O)[C@@H](N)Cc1cccc2ccccc12)[C@@H](C)CC)C(=O)N[C@@H](CC(C)C)C(=O)N[C@H](CCCNC(=N)N)C(=O)N[C@@H](Cc1c[nH]c2ccccc12)C(=O)N[C@H](CCCNC(=N)N)C(=O)N[C@@H](Cc1ccccc1)C(=O)N[C@@H](CCCNC(=N)N)C(=O)O
[41]
  Activity: < 50%
[42]
  Activity: < 50%
[43]
  Activity: < 50%
[44]
  LD50 at 120 h: 1010 mg/kg
[45]
  Activity: Non-toxic
[46]
  Activity: Non-toxic
[47]
  Activity: Non-toxic
[48]
  Activity: Non-toxic
[49]
  Activity: Non-toxic
[50]
  Activity: Non-toxic
[51]
  Activity: Non-toxic
[52]
  Activity: Non-toxic
[53]
  Activity: Non-toxic
[54]
  Activity: Non-toxic
